Experimental data taken from patent US7553864B2, “Compounds for the treatment of inflammatory disorders and microbial diseases” (Schering Corporation, priority 2005, dated 2009).
Read-outs that look alike come from different tables or passages of the source.

Target: T1, ADMP (ADAMTS-4-5) (Homo sapiens, UniProt O75173)
T1 construct: purchased Calbiochem PF113
T1 sequence (O75173 213-837): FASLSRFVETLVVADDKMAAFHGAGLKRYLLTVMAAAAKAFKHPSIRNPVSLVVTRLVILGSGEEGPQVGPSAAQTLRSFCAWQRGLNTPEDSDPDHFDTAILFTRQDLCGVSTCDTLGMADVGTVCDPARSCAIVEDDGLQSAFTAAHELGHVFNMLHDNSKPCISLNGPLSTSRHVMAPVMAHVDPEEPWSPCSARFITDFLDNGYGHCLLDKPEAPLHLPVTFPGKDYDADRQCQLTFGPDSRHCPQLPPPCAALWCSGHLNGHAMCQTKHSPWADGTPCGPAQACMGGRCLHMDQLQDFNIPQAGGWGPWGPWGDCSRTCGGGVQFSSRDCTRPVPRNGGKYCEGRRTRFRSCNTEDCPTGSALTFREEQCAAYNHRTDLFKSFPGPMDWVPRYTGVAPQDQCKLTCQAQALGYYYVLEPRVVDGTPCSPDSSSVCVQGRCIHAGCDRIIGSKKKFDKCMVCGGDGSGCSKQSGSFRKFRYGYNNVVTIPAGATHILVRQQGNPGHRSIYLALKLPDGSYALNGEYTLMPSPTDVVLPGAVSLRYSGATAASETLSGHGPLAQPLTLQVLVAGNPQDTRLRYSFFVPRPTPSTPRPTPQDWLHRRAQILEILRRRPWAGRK
Test: ADMP activity assay (procedures of WO00/05256)
Assay type: biochemical
From the text: The procedures of International Patent Publication WO00/05256 (published Feb. 3, 2000) were followed for detection of ADMP Activity and for measuring the IC50 of the compounds of the present invention. This was indicative of activity against a desintgrin and metallopropeinase thrombo spondin 4 and 5 (ADAMTS-4-5).
The enzyme was purchased commercially from Calbiochem (Cat# PF113) and the peptide substrate described in the patent was custom-ordered from AnaSpec.

[1] = read-out: IC50 rating (ADMP inhibitory activity)
[2] = read-out: IC50 (ADMP inhibition)

| Structure (SMILES) | IC50 [1] [µM] | IC50 [2] [µM] |
| --- | --- | --- |
| O=C(NCc1cccc(Br)c1)[C@@H](O)[C@H](O)C(=O)N1CCc2ccccc2C1 [Compound 185] | > 5 | – |
| CC(NC(=O)[C@H](O)[C@@H](O)C(=O)N1CCc2ccccc2C1)c1ccc(S(C)(=O)=O)cc1 (stereo partly shown) [Compound 186] | > 5 | – |
| C[C@@H](c1ccc(Br)cc1)N(C)C(=O)[C@@H](O)[C@H](O)C(=O)N1CCc2ccccc2C1 [Compound 187] | > 5 | – |
| CN1CCC(N(C)C(=O)[C@@H](O)[C@H](O)C(=O)NCc2ccc(I)cc2)CC1 [Compound 189] | > 5 | – |
| C[C@H](NC(=O)[C@H](O)[C@@H](O)C(=O)N1CCc2ccccc2C1)c1ccc(-c2cccc(N3CCCC3)c2)cc1 [Compound 196] | < 0.25 | – |
| C[C@H](NC(=O)[C@H](O)[C@@H](O)C(=O)N1CCc2ccccc2C1)c1ccc(-c2ccc(O)cc2)cc1 [Compound 200] | < 0.25 | – |
| CC(NC(=O)[C@H](O)[C@@H](O)C(=O)N1CCc2ccccc2C1)c1ccc(C(F)(F)F)cc1 (stereo partly shown) [Compound 201] | 0.25 to 1 | – |
| O=C(NCc1ccc(I)cc1)[C@H](O)[C@@H](O)C(=O)N1CCc2ccccc2C1 [Compound 204] | < 0.25 | 0.09 |
| C[C@H](NC(=O)[C@H](O)[C@@H](O)C(=O)N(C)C1Cc2ccccc2C1)c1ccc(Br)cc1 [Compound 206] | 0.25 to 1 | – |
| COc1cc2c(cc1OC)CN(C(=O)[C@H](O)[C@@H](O)C(=O)N[C@@H](C)c1ccc(Br)cc1)CC2 [Compound 207] | < 0.25 | 0.096 |
| C[C@H](NC(=O)[C@H](O)[C@@H](O)C(=O)N1CCCC1c1cccc(Cl)c1)c1ccc(Br)cc1 (stereo partly shown) [Compound 209] | < 0.25 | – |
| O=C(NCc1cccc(Br)c1)C(O)C(O)C(=O)N1CCc2ccccc2C1 (stereo not shown) [Compound 211] | > 5 | – |
| O=C(NCc1cccc(I)c1)C(O)C(O)C(=O)N1CCc2ccccc2C1 (stereo not shown) [Compound 212] | > 5 | – |
| C[C@H](NC(=O)C(O)C(O)C(=O)N1CCN(c2ccc(O)cc2)CC1)c1ccc(Br)cc1 (stereo partly shown) [Compound 215] | 1 to 5 | – |
| C[C@H](NC(=O)C(O)C(O)C(=O)N1Cc2ccccc2C1)c1ccc(O)cc1 (stereo partly shown) [Compound 216] | < 0.25 | – |
| C[C@H](NC(=O)C(O)C(O)C(=O)N1Cc2ccccc2C1)c1cccc(O)c1 (stereo partly shown) [Compound 217] | 1 to 5 | – |
| C[C@H](NC(=O)C(O)C(O)C(=O)N1CCc2ccccc2C1)c1cccc(Br)c1 (stereo partly shown) [Compound 218] | > 5 | – |
| C[C@H](NC(=O)C(O)C(O)C(=O)N1CCc2ccccc2C1)c1cccc(I)c1 (stereo partly shown) [Compound 219] | 1 to 5 | – |
| C[C@H](NC(=O)C(O)C(O)C(=O)N1CCc2ccccc2C1)c1ccc(C(F)(F)F)cc1F (stereo partly shown) [Compound 220] | > 5 | – |
| O=C(NCCCCCn1c(C(F)(F)F)nc2ccccc21)C(O)C(O)C(=O)N1CCc2ccccc2C1 (stereo not shown) [Compound 221] | > 5 | – |
